Reference: paper PMC11091220, “Metabolism-driven in vitro/in vivo disconnect of an oral ERɑ VHL-PROTAC” (Communications Biology, 2024)
Several values for one entry are separate records, joined by “and”; a condition that tells them apart may be missing. Identical values can stand only once. Like-named read-outs stand apart in the source and are kept apart here.

Experiments:
[1] = target: T1, recombinant human ERα ligand binding domain (LBD) (Homo sapiens, UniProt P03372); test: ERα binding assay (LanthaScreen TR-FRET competition); settings: mean ± s.d.; read-out: ERα binding IC50
T1 construct: purchased Invitrogen PV4543
T1 sequence (P03372 311-547 limits assumed): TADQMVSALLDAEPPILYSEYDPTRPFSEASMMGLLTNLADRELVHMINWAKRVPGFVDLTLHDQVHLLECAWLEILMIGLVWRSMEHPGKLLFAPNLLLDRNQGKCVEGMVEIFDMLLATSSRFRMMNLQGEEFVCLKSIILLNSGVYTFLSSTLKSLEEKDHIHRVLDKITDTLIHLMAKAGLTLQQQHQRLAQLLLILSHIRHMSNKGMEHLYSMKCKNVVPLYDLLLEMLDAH
Protocol: The ability of compounds to bind to isolated ERα Ligand binding domain (ERα–LBD (GST)) was assessed in competition assays using a LanthaScreenTM Time-Resolved Fluorescence Resonance Energy Transfer (TR-FRET) detection end-point. For the LanthaScreen TR-FRET endpoint, a suitable fluorophore (Fluormone ES2, Product code P2645) and recombinant human ERα ligand binding domain (LBD) (product code PV4543) were purchased from Invitrogen and used to measure compound binding. A terbium-labelled anti-GST antibody (Product code PV3551) is used to indirectly label the receptor by binding to its GST tag, and competitive binding is detected by a test compounds’ ability to displace the fluorescent ligand resulting in a loss of TR-FRET signal between the Tb-anti-GST antibody and the tracer. The assay was performed with all reagent additions carried out using the Beckman Coulter BioRAPTR FRD microfluidic workstation: […]

[2] = Total plasma exposure of AZ’6421 and metabolite 8 in rat; type: in vivo; settings: for Total plasma: rat, individual animals, analyte = label
Protocol: Fig. 8 Evidence of ER agonism of AZ’6421 and compound 8 in vitro and in vivo. a 100 nM compound or 10 nM estradiol (E2) were incubated with Ishikawa cells for 48 h and lysates measured for PR expression by western blot. b Normalised rat uterine weight shown as % change from respective vehicle control after 4 days dosing. c Representative H&E stained images taken from sections of uterine horn after 4 days of dosing. d Total plasma exposure of AZ’6421 and its metabolite 8 following dosing of 100 mg/kg BID or 30 mg/kg BID AZ’6421. Plasma samples were taken 4 hr after the 4th dose, at the same time as the uterus was weighed and sectioned for H&E staining.
Each plasma sample ([…]) was prepared using an appropriate dilution factor, and compared against an 11-point standard calibration curve (1-10000 nM) prepared in DMSO and spiked into blank plasma. Acetonitrile ([…]) was added with the internal standard, followed by centrifugation at 3000 rpm for 10 minutes. The supernatant ([…]) was then diluted in […] acetonitrile:water (75:25) and analyzed via UPLC-MS/MS.

ERα = target: T2, ERα (Homo sapiens, UniProt P03372, D538G); test: CTC174 ex vivo studies, ERα by western blot; type: cell-based; settings: for ERα % of DMSO control: CTC174 ex vivo; for remaining activity at 1 µM: read-out: ERα levels, % of control
T2 construct: from tissue; host or cells: CTC174 PDX tumours grown in female NSG mice; for the ex vivo work, single cells disaggregated from these tumours
T2 sequence (P03372 1-595 D538G): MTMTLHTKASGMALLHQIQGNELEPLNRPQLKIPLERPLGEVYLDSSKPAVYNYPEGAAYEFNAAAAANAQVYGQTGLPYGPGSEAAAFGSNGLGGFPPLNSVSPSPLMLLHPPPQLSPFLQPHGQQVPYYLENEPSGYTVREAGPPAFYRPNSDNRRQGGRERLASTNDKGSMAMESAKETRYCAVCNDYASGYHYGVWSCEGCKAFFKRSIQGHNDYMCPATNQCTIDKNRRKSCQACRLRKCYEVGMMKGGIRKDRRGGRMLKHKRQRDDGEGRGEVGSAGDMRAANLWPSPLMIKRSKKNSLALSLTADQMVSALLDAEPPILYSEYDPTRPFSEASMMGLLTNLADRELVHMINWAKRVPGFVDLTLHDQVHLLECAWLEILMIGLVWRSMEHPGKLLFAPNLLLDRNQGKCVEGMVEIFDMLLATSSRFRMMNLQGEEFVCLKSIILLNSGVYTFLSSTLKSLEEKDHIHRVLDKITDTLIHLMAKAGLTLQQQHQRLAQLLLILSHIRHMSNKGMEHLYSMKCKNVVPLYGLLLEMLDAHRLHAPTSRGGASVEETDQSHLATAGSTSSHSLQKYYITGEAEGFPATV
Protocol: CTC174 tumours were collected from donor mice, all fat, mouse tissue and necrotic areas removed and the resultant tumour placed in ice cold PBS and kept on ice. Using forceps, the tumour was then minced into small pieces (1-2 mm). Once minced, the tissue was colleced, placed into a gentlMACS C tube with 4.7 mL DMEM/F12 and enzymes H, R and A (Miltenyi Tumour Dissociation Kit), and run on the gentleMACS Octo Dissociator (Program 37C_h_TDK_2). After dissociation, the cell suspension was passed through a […] filter, red blood cell lysis performed using […] lysis buffer, and the resultant suspension centrifuged, resuspended in RPMI (containing 10% charcoal-stripped FCS) and 1x10^6 cell added to each well of a 6 well plate. DMSO control, AZ’3372 or AZ’6421 were added to well at a range of concentrations, left to incubate for 24 hours (37 °C, 5% CO2) and then samples prepared for western blot and ERα levels determined as described above.

[3] = Plasma protein binding (RED device), mouse plasma; type: in vitro ADME; settings: for Mouse fup: fraction unbound in plasma; for Mouse fup, Free: fraction free
Protocol: Plasma protein binding was completed using a RED device. The test compound was prepared to 1 mM in 100% DMSO and further diluted in plasma to achieve a final compound concentration of 5 μM in the incubation. Phosphate buffered solution pH 7.4 (500 μL) was added to the receiver chamber of the RED device and spiked plasma (300 μL) was added to the donor chamber. The plate was covered with a gas-permeable lid and incubated for 18 h at 37 °C with 5% CO2 on an orbital shaker at 300 rpm. At the end of incubation, 50 μL of post-dialysis sample from the donor and receiver wells were aliquot into separate wells and matrix-matched with 50 μL of phosphate buffer solution pH 7.4 or blank plasma, respectively. The samples were subsequently quenched separately in 400 μL of ice-cold 100% acetonitrile. Quenched samples were shaken at 1000 rpm for 10 min and centrifuged for 30 min at 4000 rpm to pellet precipitated protein. The supernatant fraction was further diluted 1:1 with deionised water for analysis by LC MS/MS[17].

[4] = AZ'6421 dosed 30 mg/kg BID, 30 mg/kg
[5] = AZ'6421 dosed 100 mg/kg BID, 100 mg/kg

Question: Which results are given for `Cc1ncsc1-c1ccc(CNC(=O)[C@@H]2C[C@@H](O)CN2C(=O)[C@@H](NC(=O)COCCCOCCCOc2cc(F)c([C@@H]3c4[nH]c5ccccc5c4C[C@@H](C)N3CC(C)(C)F)c(F)c2)C(C)(C)C)cc1` [Compound 5]?
Answer: IC50 [1]: < 0.6 nM; Total plasma [2, 4]: 0.1461 µM and 0.4943 µM and 0.0995 µM; Total plasma [2, 5]: 1.2846 µM and 2.0194 µM and 0.7522 µM and 0.1020 µM and 0.0689 µM; ERα % of DMSO control (ERα; 1 nM, 24 hours): 20.3%; ERα % of DMSO control (ERα; 10 nM, 24 hours): 12.0%; ERα % of DMSO control (ERα; 30 nM, 24 hours): 4.1%; ERα % of DMSO control (ERα; 100 nM, 24 hours): 4.2%; ERα % of DMSO control (ERα; 300 nM, 24 hours): 3.9%; ERα % of DMSO control (ERα; 1000 nM, 24 hours): 3.6%; ERα degradation (ERα; CTC174 cells ex vivo, 24 hours, 10 nM and above): approximately 90%; remaining activity at 1 µM (ERα): < 1%; free in mouse plasma [3]: 0.02%; Mouse fup [3]: 0.0002 (1); Mouse fup, Free ([3]; mouse plasma): 0.0002

Question: With `C[C@@H]1Cc2c([nH]c3ccccc23)[C@@H](c2c(F)cc(OCCC(=O)O)cc2F)N1CC(C)(C)F` [Compound 8] as the compound, how does the IC50 [1] read?
Answer: < 0.5 nM

Question: And the “level in rat plasma” value ([2]; after dosing AZ’6421)?
Answer: found at sizable levels in rat plasma

Question: What about the “Total plasma” value [2, 4] of the same compound?
Answer: 1.0069 µM and 2.5325 µM and 3.6803 µM and 2.8962 µM and 0.8884 µM

Question: What about the “Total plasma” value [2, 5] of the same compound?
Answer: 7.8737 µM and 9.6410 µM and 6.9833 µM and 3.4205 µM and 4.6683 µM

Question: What about the remaining activity at 1 µM (ERα; 1000 nM, CTC174 cells ex vivo (Fig. 6f)) of the same compound?
Answer: 42%

Question: And the “free in mouse plasma” value [3]?
Answer: 0.5%

Question: And the Mouse fup [3]?
Answer: 0.005 (1)

Question: What about the “difference in the free levels vs AZ’6421” value ([3]; mouse plasma) of the same compound?
Answer: 25 fold

Question: What about the “Mouse fup, Free” value ([3]; mouse plasma) of the same compound?
Answer: 0.005
